Tests used:
[1] = compound: C=CC(=O)Nc1ccc(C(=O)Nc2[nH]nc3c2CN(C(=O)N[C@H](CN(C)C)c2ccccc2)C3(C)C)cc1 [YKL-5-124]; test: increase in dead-cell fraction, 72 h; higher = more death;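 also: breast cancer cell lines in 384-well plates, stained with Hoechst plus LIVE/DEAD far red dye and imaged, cells above an LDR intensity threshold counted dead, Hoechst-negative corpses included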
[2] = compound: CC(=O)c1c(C)c2cnc(Nc3ccc(N4CCN(CCOCCOCCOCCNC(=O)COc5cccc6c5C(=O)N(C5CCC(=O)NC5=O)C6=O)CC4)cn3)nc2n(C2CCCC2)c1=O [BSJ-03-123]; test: as above
[3] = compound: CC(=O)c1c(C)c2cnc(Nc3ccc(N4CCNCC4)cn3)nc2n(C2CCCC2)c1=O; test: as above
[4] = compound: CCN1CCN(Cc2ccc(Nc3ncc(F)c(-c4cc(F)c5nc(C)n(C(C)C)c5c4)n3)nc2)CC1; test: as above
[5] = compound: T1, CCOc1cc2ncc(C#N)c(Nc3ccc(OCc4ccccn4)c(Cl)c3)c2cc1NC(=O)/C=C/CN(C)C [Neratinib/HKI272]; test: as above
[6] = compound: CCc1cnn2c(NCc3ccc[n+]([O-])c3)cc(N3CCCC[C@H]3CCO)nc12; test: as above
[7] = compound: CN(C)C(=O)c1cc2cnc(Nc3ccc(N4CCNCC4)cn3)nc2n1C1CCCC1 [LEE011/Ribociclib]; test: as above
[8] = compound: CN(C)C/C=C/C(=O)Nc1ccc(C(=O)N2CCC[C@@H](Nc3ncc(Cl)c(-c4c[nH]c5ccccc45)n3)C2)cc1 [THZ531]; test: as above
[9] = compound: T2, CN(C)C/C=C/C(=O)Nc1ccc(C(=O)Nc2cccc(Nc3ncc(Cl)c(-c4c[nH]c5ccccc45)n3)c2)cc1 [THZ1]; test: as above
[10] = compound: CN1CC[C@H](c2c(O)cc(O)c3c(=O)cc(-c4ccccc4Cl)oc23)[C@H](O)C1 [Flavopiridol]; test: as above
[11] = compound: T1, Neratinib/HKI272; test: GR value, 72 h; higher = faster growth (1 = untreated, <0 = killing);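 also: breast cancer and non-malignant breast epithelial lines, nine half-log doses, viable cells counted by Hoechst and LIVE/DEAD dye imaging versus time-zero plates and DMSO controls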
[12] = compound: T2, THZ1; test: as above

MGH312
increase in dead-cell fraction ([1]; 0.001 µM): 0.0188 | increase in dead-cell fraction ([1]; 0.003162 µM): 0.0332 | increase in dead-cell fraction ([1]; 0.01 µM): 0.0482 | increase in dead-cell fraction ([1]; 0.03162 µM): 0.0591 | increase in dead-cell fraction ([1]; 0.1 µM): 0.0669 | increase in dead-cell fraction ([1]; 0.3162 µM): 0.0808 | increase in dead-cell fraction ([1]; 1 µM): 0.0821 | increase in dead-cell fraction ([1]; 3.162 µM): 0.15 | increase in dead-cell fraction ([1]; 10 µM): 0.61 | increase in dead-cell fraction ([2]; 0.001 µM): -0.0024 | increase in dead-cell fraction ([2]; 0.003162 µM): 0.0067 | increase in dead-cell fraction ([2]; 0.01 µM): 0.0098 | increase in dead-cell fraction ([2]; 0.03162 µM): -0.0134 | increase in dead-cell fraction ([2]; 0.1 µM): 0.0037 | increase in dead-cell fraction ([2]; 0.3162 µM): 0.0116 | increase in dead-cell fraction ([2]; 1 µM): 0.0094 | increase in dead-cell fraction ([2]; 3.162 µM): 0.0031 | increase in dead-cell fraction ([2]; 10 µM): 0.55 | increase in dead-cell fraction ([3]; 0.0003162 µM): -0.0083 | increase in dead-cell fraction ([3]; 0.001 µM): -0.0121 | increase in dead-cell fraction ([3]; 0.003162 µM): 0.0011 | increase in dead-cell fraction ([3]; 0.01 µM): -0.0042 | increase in dead-cell fraction ([3]; 0.03162 µM): 0.001 | increase in dead-cell fraction ([3]; 0.1 µM): -0.0039 | increase in dead-cell fraction ([3]; 0.3162 µM): 0.003 | increase in dead-cell fraction ([3]; 1 µM): 0.0034 | increase in dead-cell fraction ([3]; 3.162 µM): 0.0037 | increase in dead-cell fraction ([4]; 0.001 µM): -0.0051 | increase in dead-cell fraction ([4]; 0.003162 µM): -0.0048 | increase in dead-cell fraction ([4]; 0.01 µM): -0.0002 | increase in dead-cell fraction ([4]; 0.03162 µM): -0.0029 | increase in dead-cell fraction ([4]; 0.1 µM): -0.0075 | increase in dead-cell fraction ([4]; 0.3162 µM): 0.0016 | increase in dead-cell fraction ([4]; 1 µM): -0.0026 | increase in dead-cell fraction ([4]; 3.162 µM): 0.0207 | increase in dead-cell fraction ([4]; 10 µM): 0.208 | increase in dead-cell fraction ([5]; 0.0003162 µM): -0.0056 | increase in dead-cell fraction ([5]; 0.001 µM): -0.0054 | increase in dead-cell fraction ([5]; 0.003162 µM): -0.0078 | increase in dead-cell fraction ([5]; 0.01 µM): 0.0126 | increase in dead-cell fraction ([5]; 0.03162 µM): 0.0263 | increase in dead-cell fraction ([5]; 0.1 µM): 0.0191 | increase in dead-cell fraction ([5]; 0.3162 µM): 0.0224 | increase in dead-cell fraction ([5]; 1 µM): 0.0395 | increase in dead-cell fraction ([5]; 3.162 µM): 0.0962 | increase in dead-cell fraction ([6]; 0.0001 µM): 0.0027 | increase in dead-cell fraction ([6]; 0.0003162 µM): 0.0051 | increase in dead-cell fraction ([6]; 0.001 µM): -0.0065 | increase in dead-cell fraction ([6]; 0.003162 µM): -0.0023 | increase in dead-cell fraction ([6]; 0.01 µM): 0.0052 | increase in dead-cell fraction ([6]; 0.03162 µM): 0.481 | increase in dead-cell fraction ([6]; 0.1 µM): 0.649 | increase in dead-cell fraction ([6]; 0.3162 µM): 0.713 | increase in dead-cell fraction ([6]; 1 µM): 0.67 | increase in dead-cell fraction ([7]; 0.001 µM): -0.0153 | increase in dead-cell fraction ([7]; 0.003162 µM): -0.0081 | increase in dead-cell fraction ([7]; 0.01 µM): 0.0061 | increase in dead-cell fraction ([7]; 0.03162 µM): -0.0004 | increase in dead-cell fraction ([7]; 0.1 µM): 0.001 | increase in dead-cell fraction ([7]; 0.3162 µM): -0.0068 | increase in dead-cell fraction ([7]; 1 µM): 0.006 | increase in dead-cell fraction ([7]; 3.162 µM): 0.004 | increase in dead-cell fraction ([7]; 10 µM): -0.0032 | increase in dead-cell fraction ([8]; 0.0001 µM): -0.0016 | increase in dead-cell fraction ([8]; 0.0003162 µM): 0.006 | increase in dead-cell fraction ([8]; 0.001 µM): 0.0097 | increase in dead-cell fraction ([8]; 0.003162 µM): 0.002 | increase in dead-cell fraction ([8]; 0.01 µM): -0.0045 | increase in dead-cell fraction ([8]; 0.03162 µM): 0.0455 | increase in dead-cell fraction ([8]; 0.1 µM): 0.662 | increase in dead-cell fraction ([8]; 0.3162 µM): 0.72 | increase in dead-cell fraction ([8]; 1 µM): 0.639 | increase in dead-cell fraction ([9]; 0.0001 µM): -0.0154 | increase in dead-cell fraction ([9]; 0.0003162 µM): 0 | increase in dead-cell fraction ([9]; 0.001 µM): -0.0061 | increase in dead-cell fraction ([9]; 0.003162 µM): 0.0002 | increase in dead-cell fraction ([9]; 0.01 µM): 0.0559 | increase in dead-cell fraction ([9]; 0.03162 µM): 0.541 | increase in dead-cell fraction ([9]; 0.1 µM): 0.684 | increase in dead-cell fraction ([9]; 0.3162 µM): 0.628 | increase in dead-cell fraction ([9]; 1 µM): 0.699 | increase in dead-cell fraction ([10]; 0.0001 µM): -0.004 | increase in dead-cell fraction ([10]; 0.0003162 µM): -0.0016 | increase in dead-cell fraction ([10]; 0.001 µM): -0.0079 | increase in dead-cell fraction ([10]; 0.003162 µM): 0.013 | increase in dead-cell fraction ([10]; 0.01 µM): 0.0083 | increase in dead-cell fraction ([10]; 0.03162 µM): -0.0027 | increase in dead-cell fraction ([10]; 0.1 µM): 0.0209 | increase in dead-cell fraction ([10]; 0.3162 µM): 0.249 | increase in dead-cell fraction ([10]; 1 µM): 0.705 | GR value ([11]; 0.0003162 µM): 0.953 GR | GR value ([11]; 0.001 µM): 1.02 GR | GR value ([11]; 0.003162 µM): 0.997 GR | GR value ([11]; 0.01 µM): 0.787 GR | GR value ([11]; 0.03162 µM): 0.606 GR | GR value ([11]; 0.1 µM): 0.489 GR | GR value ([11]; 0.3162 µM): 0.502 GR | GR value ([11]; 1 µM): 0.238 GR | GR value ([11]; 3.162 µM): -0.252 GR | GR value ([12]; 0.0001 µM): 1.22 GR | GR value ([12]; 0.0003162 µM): 0.923 GR | GR value ([12]; 0.001 µM): 0.962 GR | GR value ([12]; 0.003162 µM): 0.662 GR | GR value ([12]; 0.01 µM): 0.287 GR | GR value ([12]; 0.03162 µM): -0.892 GR | GR value ([12]; 0.1 µM): -0.905 GR | GR value ([12]; 0.3162 µM): -0.92 GR | GR value ([12]; 1 µM): -0.934 GR
